# Assay results as given in patent US20220110320A1, “ANTIMICROBIAL THIOURONIUM COPOLYMERS AND METHODS OF MAKING AND USING THE SAME” (priority 2020, published 2022).
# Assay: 1H-NMR stability (hydrolysis) of VBT monomer
# Format: physicochemical
# Settings: 3 weeks
# Experimental: ^1H-NMR Studies. The VBT monomer (5 mg/mL) stability in D2O (with 0.5 μL DMSO as standard) and 0.5 M sodium acetate was analyzed using ^1H-NMR (Avance-600 MHz, Bruker). The VBT peak position and integration were monitored vs. time.
# The monomer was recrystallized before use to remove any deprotected thiols. The PVBT polymer was prepared using radical polymerization in TFE and was characterized using NMR spectroscopy. Because the thiouronium group is usually employed as a precursor to thiols, via base-induced hydrolysis, the stability of the VBT monomer under neutral and mildly basic conditions was assessed by recording ^1H-NMR spectra of VBT in D20 and in 0.5 M NaAc (pH≈9.2) for 3 weeks. […] In fact, hydrolysis is typically carried out at much higher pH.
smiles,measurement,setting,value
C=Cc1ccc(CSC(=N)N)cc1.Cl [VBT],Hydrolysis of monomer by 1H-NMR,in 0.5 M NaAc (pH≈9.2),no signs of hydrolysis
same,Hydrolysis of monomer by 1H-NMR,in D2O,no signs of hydrolysis
